Measurements published in patent US7482346B2, “Derivatives of alkylpiperazine and alkylhomopiperazine-carboxylates, preparation method thereof and use of same as fatty acid amido hydrolase enzyme inhibitors” (Sanofi-Aventis, priority 2004, dated 2009).
Counter-ions that a name gives are not always drawn.

Target: T1, FAAH (fatty acid amide hydrolase) (Mus musculus, UniProt O08914)
T1 construct: Membrane homogenates are prepared at the time of use by homogenizing the tissues in a Polytron; from tissue; host or cells: mouse brain (minus the cerebellum), membrane homogenate
T1 sequence (O08914 1-579): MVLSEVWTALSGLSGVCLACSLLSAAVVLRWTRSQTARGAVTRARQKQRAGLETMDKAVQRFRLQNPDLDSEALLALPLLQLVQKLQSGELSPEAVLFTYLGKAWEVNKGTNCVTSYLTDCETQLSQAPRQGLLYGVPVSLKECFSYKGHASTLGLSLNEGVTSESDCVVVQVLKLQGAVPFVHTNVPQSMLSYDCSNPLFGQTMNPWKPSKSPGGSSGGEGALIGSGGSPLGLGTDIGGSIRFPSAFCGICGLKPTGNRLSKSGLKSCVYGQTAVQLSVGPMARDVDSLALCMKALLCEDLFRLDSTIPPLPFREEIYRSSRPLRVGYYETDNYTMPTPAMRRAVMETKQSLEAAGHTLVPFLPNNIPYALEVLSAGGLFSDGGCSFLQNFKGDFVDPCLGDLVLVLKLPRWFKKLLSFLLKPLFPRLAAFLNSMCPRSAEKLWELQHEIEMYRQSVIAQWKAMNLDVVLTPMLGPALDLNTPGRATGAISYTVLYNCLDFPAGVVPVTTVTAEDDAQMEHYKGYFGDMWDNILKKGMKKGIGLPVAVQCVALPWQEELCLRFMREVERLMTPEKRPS
Test: radio-enzymatic assay of FAAH inhibition (hydrolysis of anandamide [1-3H ethanolamine])
Format: biochemical
Conditions: mouse brain membrane homogenates; anandamide [1-3H ethanolamine] 10 μM; 15 minutes at 25° C.; read-out: IC50 (concentration inhibiting by 50% the control enzyme activity of FAAH)
Experimental: The compounds of the invention were subjected to pharmacological tests permitting determination of their inhibitory effect on the enzyme FAAH (fatty acid amide hydrolase).
Accordingly, mouse brains (minus the cerebellum) are removed and stored at −80° C. Membrane homogenates are prepared at the time of use by homogenizing the tissues in a Polytron in a 10 mM Tris-HCl buffer (pH 8) containing 150 mM NaCl and 1 mM EDTA. The enzyme reaction is subsequently conducted in 70 μl of buffer containing bovine serum albumin without fatty acids (1 mg/ml). In succession, the test compounds, at various concentrations, anandamide [1-^3H ethanolamine] (specific activity: 15-20 Ci/mmol) diluted to 10 μM with cold anandamide, and the membrane preparation (400 μg of frozen tissue per assay) are added. After 15 minutes at 25° C. the enzyme reaction is terminated by adding 140 μl of chloroform/methanol (2:1). The mixture is stirred for 10 minutes and then centrifuged for 15 minutes at 3500 g. An aliquot (30 μl) of the aqueous phase containing the 1-^3H ethanolamine is counted by liquid scintillation.

| IC50 [nM] | SMILES |
| --- | --- |
| 72 | CNC(=O)COC(=O)N1CCN(CCc2cccc3ccccc23)CC1 [Compound 21, 2-(methylamino)-2-oxoethyl 4-[2-(1-naphthyl)ethyl]piperazine-1-carboxylate] |
| 50 | CNC(=O)COC(=O)N1CCN(CCCc2cccc(-c3ccccc3)c2)CC1 [Compound 48, 2-(methylamino)-2-oxoethyl 4-(3-biphenyl-3-ylpropyl)piperazine-1-carboxylate] |
| 32 | CNC(=O)COC(=O)N1CCN(CCCc2ccc(-c3ccccc3)cc2)CC1 [Compound 49, 2-(methylamino)-2-oxoethyl 4-(3-biphenyl-4-ylpropyl)piperazine-1-carboxylate] |

Test system: male OFI mice
Test: analgesia test: abdominal stretches induced by PBQ (phenylbenzoquinone)
Format: in vivo, mouse
Conditions: dose of 10 mg/kg at 120 minutes, PBQ 2 mg/kg i.p.
Experimental: The in vivo activity of the compounds of the invention was evaluated in an analgesia test.
Accordingly, intraperitoneal (i.p.) administration of PBQ (phenylbenzoquinone, 2 mg/kg in a 0.9% sodium chloride solution containing 5% of ethanol) to male OFI mice weighing 25 to 30 g causes abdominal stretches, on average 30 twists or contractions during the period from 5 to 15 minutes after injection. The test compounds are administered orally (p.o.) or intraperitoneally (i.p.) in suspension in Tween 80 at 0.5%, 60 minutes or 120 minutes before the administration of PBQ. […] For example, compounds 49 and 69 of the table reduce by 43% and 47% respectively, the number of stretches induced by PBQ, at a dose of 10 mg/kg at 120 minutes.

| SMILES | reduction of the number of stretches induced by PBQ [%] |
| --- | --- |
| CNC(=O)COC(=O)N1CCN(CCCc2ccc(-c3ccccc3)cc2)CC1 [Compound 49, 2-(methylamino)-2-oxoethyl 4-(3-biphenyl-4-ylpropyl)piperazine-1-carboxylate] | 43 |
| CNC(=O)COC(=O)N1CCN(CCCc2cc(-c3ccc(Cl)cc3)no2)CC1 [Compound 69, 2-(methylamino)-2-oxoethyl 4-{3-[3-(4-chlorophenyl)isoxazol-5-yl]propyl}piperazine-1-carboxylate] | 47 |

Test system: not given
Test: not given
Conditions: not given

| melting point | SMILES |
| --- | --- |
| 212 to 216 °C (dec.) | CNC(=O)COC(=O)N1CCN(C(C)(C)CCc2cccc(-c3ccccc3)c2)CC1 (as salt: HCl) [Compound 50, 2-(methylamino)-2-oxoethyl 4-(3-biphenyl-3-yl-1,1-dimethylpropyl)piperazine-1-carboxylate hydrochloride] |
| 133 to 135 °C | CNC(=O)COC(=O)N1CCN(CCc2ccc3ccccc3c2)CC1 [Compound 25, 2-(methylamino)-2-oxoethyl 4-(2-naphthalen-2-ylethyl)piperazine-1-carboxylate] |
| 130 to 132 °C | CNC(=O)COC(=O)N1CCN(CCc2cc(-c3ccc(Cl)cc3)no2)CC1 [Compound 29, 2-(methylamino)-2-oxoethyl 4-{2-[3-(4-chlorophenyl)isoxazol-5-yl]ethyl}piperazine-1-carboxylate] |
| 82 to 85 °C | CNC(=O)COC(=O)N1CCN(CCCc2cccc(-c3cccc(Cl)c3)c2)CC1 [Compound 52, 2-(methylamino)-2-oxoethyl 4-[3-(3′-chlorobiphenyl-3-yl)propyl]piperazine-1-carboxylate] |
| 109 to 111 °C | CNC(=O)COC(=O)N1CCN(C/C=C/c2ccccc2)CC1 [Compound 85, 2-(methylamino)-2-oxoethyl trans-4-(3-phenylprop-2-en-1-yl)piperazine-1-carboxylate] |
| 102 to 104 °C | NC(=O)COC(=O)N1CCCN(CC#Cc2cccc(C(F)(F)F)c2)CC1 [Compound 99, 2-amino-2-oxoethyl 4-{3-[3-(trifluoromethyl)phenyl]prop-2-yn-1-yl}-1,4-diazepane-1-carboxylate] |
| 159 to 161 °C | CNC(=O)COC(=O)N1CCN(CCOc2ccc(Cl)cc2)CC1 [Compound 130, 2-(methylamino)-2-oxoethyl 4-{2-[(4-chlorophenyl)oxy]ethyl}piperazine-1-carboxylate] |
